Seven molecules from patent US8263587B2, “Benzoxazepine compounds, their preparation and use” (Piramal Healthcare Limited, priority 2006, dated 2012) can be followed below.

For one data set, the system named is 3T3-L1 pre-adipocytes. Briefly: Potentiation of insulin-stimulated lipogenesis in 3T3-L1 adipocytes. The data set is classed as cell-based. The note with it: over insulin control = 1. As for the experimental part:
3T3-L1 pre-adipocytes were grown to confluence in 25 ml culture flasks in DMEM (Dulbecco's Modified Eagle's Medium, with 25 mM glucose) containing 10% fetal calf serum (FCS) and antibiotics in a humidified atmosphere of 5% CO2 and 95% air at 37° C. The medium was changed every 2-3 days. The cells were trypsinised at confluency using 0.25% trypsin and transferred to another flask.
For the assay, cells were grown in 24 well plates. Induction of differentiation was done when the cells had grown to confluency with DMEM containing 5% FCS and supplemented with 0.5 mM IBMX (3-Isobutyl-1-methylxanthine), 0.5 μM DEX (dexamethasone) and 1 μg/ml insulin. […] The medium was changed three times, each at an interval of 2 days. On the day of termination of medium changes, lipogenesis assay was performed.
3T3-L1 cells were grown to confluency in 24 well plates. […] On the day of termination of the assay the cells were incubated in […] KRHB (Krebs-Ringer Hepes buffer) for 2 hr at 37° C. in a CO2 incubator. This was replaced with fresh KRHB with 0.1 mM glucose containing 100 nM insulin, test compound or insulin plus test compound. Lipogenesis was initiated by the addition of 20 μl of 50 μCi/ml [^3H]-D-Glucose to each well and incubation for 90 min at 37° C. in a CO2 incubator. The reaction was terminated by aspirating the medium from each well and washing the cells rapidly 3 times with ice-cold PBS (phosphate buffered saline). 500 μl of 0.2 N NaOH was added to lyse the cells. 450 μl was aliquoted into scintillation vials and scintillation cocktail added. The vials were read in Liquid Scintillation Counter. Results are expressed as fold activation of the standard or test compound over the control (Table 2).

The subject of data set [1] is isolated rat hepatocytes. In words: Inhibition of gluconeogenesis in isolated rat hepatocytes. The settings on record: 5 mM fructose. The data set is classed as cell-based. As for the experimental part: Assay protocol for determination of inhibition of gluconeogenesis by compounds in isolated rat hepatocytes:
Hepatocytes were isolated by collagenase digestion of perfused livers from male Wistar rats fasted overnight according to the method described in J. Cell. Science., 56, 233-244, 1982, the disclosure of which is incorporated by reference for the teaching of the method.
(§1) The assay was done in three groups: basal, control and test. The test compounds were added to the vials at different concentrations. The isolated hepatocytes were added to the vials and they were incubated at 37° C. for 15 min. After 15 min, 5 mM fructose (precursor for gluconeogenesis) was added to the control and test group. Vials were again incubated at 37° C. for one hour with constant shaking (80 cycles/min.). Incubation was terminated by centrifuging the reaction mixture at 3000 rpm for 5 min. The supernatant was used for determination of both glucose and lactate dehydrogenase (LDH) (Table 1).
An active compound would decrease the amount of glucose formed, which is read at 520 nm by glucose oxidase-peroxidase method.

The test system of data set [2] is isolated rat hepatocytes. Briefly: LDH leakage from isolated rat hepatocytes. Format: cell-based. As for the experimental part: as §1
The LDH activity is measured, by the method described in Meth. Enz. Ana. 3, 118-125, 1984, the disclosure of which is incorporated by reference for the teaching of the method, as the amount of pyruvate consumed by continuously monitoring the decrease in absorbance due to oxidation of NADH (Nicotinamide Adenine Dinucleotide-reduced form) at 339 nm.
(LDH leaks from cells whose membrane has failed.)

The target of another data set is T1, hPPARγ (Homo sapiens, UniProt P37231).
T1 construct: expressed in transfected cells; host or cells: CV-1 cells
T1 sequence (P37231 1-505): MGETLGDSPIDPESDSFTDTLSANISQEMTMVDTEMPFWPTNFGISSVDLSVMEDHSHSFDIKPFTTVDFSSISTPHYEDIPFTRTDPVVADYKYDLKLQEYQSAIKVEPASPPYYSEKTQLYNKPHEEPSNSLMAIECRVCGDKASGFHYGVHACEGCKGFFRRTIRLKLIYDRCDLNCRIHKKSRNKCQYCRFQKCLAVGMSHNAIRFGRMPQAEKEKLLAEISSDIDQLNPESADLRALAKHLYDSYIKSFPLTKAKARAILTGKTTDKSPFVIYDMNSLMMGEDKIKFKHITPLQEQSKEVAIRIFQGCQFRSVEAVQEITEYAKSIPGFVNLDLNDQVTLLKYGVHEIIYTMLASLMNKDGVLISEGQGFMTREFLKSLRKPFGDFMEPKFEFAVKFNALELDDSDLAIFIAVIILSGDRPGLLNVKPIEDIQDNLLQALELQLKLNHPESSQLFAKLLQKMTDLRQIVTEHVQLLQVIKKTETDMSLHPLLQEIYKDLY
Briefly: hPPARγ transactivation in cell-based assay (CV-1 cells, luciferase). Also noted: Emax: dose or concentration left out as unconfirmed. As for the experimental part:
Cell based transcription assay was employed to identify hPPAR γ/α agonists. CV-1 cells were maintained in MEM (minimum essential medium) containing 10% FBS (fetal bovine serum). Cells were seeded at a density of 80,000 cells/well in a 24-well plate one day prior to transfection. CV-1 cells were transiently transfected with hPPAR γ/α using Lipofectamine 2000. […] Receptor activation by ligands leads to activation of luciferase expression, which was measured after 15-16 h incubation. The cells were washed with PBS, lysed, and luciferase activity measured in a microplate luminometer. […] Both compounds were synthesized in-house. Maximum activation with the reference agonists was defined as 100%. Receptor activation by test compounds is presented as percentage of maximum activation caused by the respective reference agonists in Table 4(a), Table 4(b) and Table 4(c).

Data set [3] relates to STZ induced diabetic rats. In words: Streptozotocin-induced diabetes in rats, blood glucose. Format: in vivo, male Wistar rats. The note with it: for Percent reduction in blood glucose: STZ diabetic rats. As to the method: Diabetes was induced in male Wistar rats by intraperitoneal (i.p.) injection of streptozotocin (STZ) (60 mg/kg) dissolved in 0.05 M citrate buffer, pH 4.6. Plasma glucose levels were estimated 48 hours after STZ administration. […] The rats were divided into […] (n=8 in each group): the first (control) group consisted of untreated animals, the second group had diabetic animals and the third and fourth groups consisted of diabetic animals treated with the test compounds (50 and 100 mg/kg respectively). Test compounds were administered p.o. for 8 days to STZ induced diabetic rats (180-200 g). Blood glucose was measured on day 0, 3 and 8 (Table 3).

Setting [4] is: with insulin, concentration not given.
The mark [5] stands for this setting: Rattus norvegicus, Hepatocyte, 10 μM, read-out: Gluconeogenesis (glucose production) % inhibition.
Setting [6] is: Rattus norvegicus, Hepatocyte, read-out: Gluconeogenesis (glucose production) % inhibition.
Setting [7] is: 10 μM, isolated rat hepatocytes.
[8] abbreviates: 25 μM, isolated rat hepatocytes.
The mark [9] stands for this setting: 50 μM, isolated rat hepatocytes.
Where [10] appears, read: 100 μM, isolated rat hepatocytes.
Setting [11] is: Rattus norvegicus, Hepatocyte, 50 μM, read-out: Gluconeogenesis (glucose production) % inhibition.
[12] abbreviates: Rattus norvegicus, Hepatocyte, 100 μM, read-out: Gluconeogenesis (glucose production) % inhibition.
Setting [13] is: one entry 'No leakage' for all concentrations tested of the compound (up to 100 μM).

As for `COC(=O)C(Cc1ccc2c(c1)CN(c1ccccn1)CCO2)C(=O)OC` [Compound of Example 2], the “Fold stimulation of insulin-stimulated lipogenesis” value (“Fold stimulation” for short) in the data set on 3T3-L1 pre-adipocytes (setting [4]) was found to be 2 fold.

What is called inhibition is how much of the control response was suppressed. With `O=C1NC(=O)C(=Cc2ccc3c(c2)CN(c2ccccn2)CCO3)S1` [Compound of Example 3, 5-(4-Pyridin-2-yl-2,3,4,5-tetrahydro-benzo[f][1,4]oxazepin-7-ylmethylene)-thiazolidine-2,4-dione], the “Gluconeogenesis (glucose production) % inhibition” value amounted to 42% in the data set on isolated rat hepatocytes [1] (50 μM) and 74% with isolated rat hepatocytes [1] (100 μM). Besides, the inhibition at 10 µM in the data set on isolated rat hepatocytes [1] (setting [5]) stood at 10%. In the data set on isolated rat hepatocytes [1] (setting [6]), the inhibition at 25 µM was found to be 36%. The inhibition at 75 µM in the data set with isolated rat hepatocytes [1] (Rattus norvegicus, Hepatocyte, 75 μM, read-out: Gluconeogenesis (glucose production) % inhibition) is 51%. In addition, the “Fold stimulation” value in the data set with 3T3-L1 pre-adipocytes (1 μM with insulin) is 1.2 fold; with 3T3-L1 pre-adipocytes (10 μM with insulin) it was 1.4 fold; with 3T3-L1 pre-adipocytes (25 μM with insulin), 1.7 fold. Besides, the LDH % leakage with isolated rat hepatocytes [2] (setting [7]) amounted to 5%; with isolated rat hepatocytes [2] (setting [8]), 5%; with isolated rat hepatocytes [2] (setting [9]) it was 6%; with isolated rat hepatocytes [2] (75 μM, isolated rat hepatocytes) it was 7%; in the data set on isolated rat hepatocytes [2] (setting [10]) it was 7%.

As a reminder, the melting point is the temperature, or range, at which the solid turns liquid. As for `O=C1NC(=O)C(Cc2ccc3c(c2)CN(c2ccccn2)CCO3)S1` (stereo not drawn) [Compound of Example 4, 5-(4-Pyridin-2-yl-2,3,4,5-tetrahydro-benzo[f][1,4]oxazepin-7-yl-methyl)-thiazolidine-2,4-dione], the melting point fell in the range of 180 to 181 °C. In addition, the inhibition at 10 µM with isolated rat hepatocytes [1] (setting [5]) stood at 27%. For the same molecule, the inhibition at 50 µM with isolated rat hepatocytes [1] (setting [11]) was determined as 35%. Also, in the data set on isolated rat hepatocytes [1] (setting [12]), the inhibition at 100 µM was 57%. Further, the “Fold stimulation” value in the data set with 3T3-L1 pre-adipocytes (10 μM with insulin) was 2 fold. Moreover, the “Fold stimulation” value with 3T3-L1 pre-adipocytes (100 μM with insulin) worked out at 2.3 fold. For the same molecule, the LDH % leakage result in the data set on isolated rat hepatocytes [2] (setting [13]) is listed as “No”.

On to `O=C(O)/C=C\C(=O)O.O=C1NC(=O)C(Cc2ccc3c(c2)CN(c2ccccn2)CCO3)S1` (stereo not drawn) [Compound of Example 5, 5-(4-Pyridine-2-yl-2,3,4,5-tetrahydro-benzo[f][1,4]oxazepin-7-ylmethyl)-thiazolidine-2,4-dione maleate], for which, on hPPARγ (1 μM, CV-1 cells transfected with hPPARγ), the “PPARγ (Fold activation at 1 μM)” value came to 1.8 fold. For the same molecule, the Emax on hPPARγ (CV-1, read-out: PPARγ activation as percentage of maximum activation by rosiglitazone) was found to be 12%. Also, the figures for the “Percent reduction in blood glucose” value in data set [3] (50 mpk p.o. for 8 days) and in data set [3] (100 mpk p.o. for 8 days) were 28% and 31%, respectively. For the same molecule, the Blood glucose in data set [3] (50 mpk p.o., Day 0, STZ diabetic rats) is reported as 16.8 ± 0.9 μmols/ml; in data set [3] (50 mpk p.o., Day 3, STZ diabetic rats), 15.9 ± 3.0 μmols/ml; in data set [3] (50 mpk p.o., Day 8, STZ diabetic rats) it was 14.1 ± 1.99 μmols/ml; in data set [3] (100 mpk p.o., Day 0, STZ diabetic rats), 17.0 ± 2.0 μmols/ml; in data set [3] (100 mpk p.o., Day 3, STZ diabetic rats), 16.0 ± 1.09 μmols/ml; in data set [3] (100 mpk p.o., Day 8, STZ diabetic rats), 13.0 ± 0.9 μmols/ml.

As for `O=C1NC(=O)C(=Cc2ccc3c(c2)CN(c2nc4ccccc4o2)CCO3)S1` [Compound of Example 6, 5-(4-Benzooxazol-2-yl-2,3,4,5-tetrahydro-benzo[f][1,4]oxazepin-7-ylmethylene)-thiazolidine-2,4-dione], in the data set on 3T3-L1 pre-adipocytes (10 μM with insulin), the “Fold stimulation” value amounted to 1.4 fold.

In turn, `O=C(O)/C=C\C(=O)O.O=C1NC(=O)C(=Cc2ccc3c(c2)CN(c2ccccn2)CCO3)S1` [Compound of Example 8, 5-(4-Pyridin-2-yl-2,3,4,5-tetrahydro-benzo[f][1,4]oxazepin-7-ylmethylene)-thiazolidine-2,4-dione maleate] returned a melting point of 224 to 226 °C. Besides, in the data set on isolated rat hepatocytes [1] (10 μM), the “Gluconeogenesis (glucose production) % inhibition” value was found to be 9%. In addition, in the data set on isolated rat hepatocytes [1] (50 μM), the “Gluconeogenesis (glucose production) % inhibition” value is reported as 13%. Moreover, the “Gluconeogenesis (glucose production) % inhibition” value in the data set on isolated rat hepatocytes [1] (100 μM) was 45%. The “Fold stimulation” value in the data set with 3T3-L1 pre-adipocytes (setting [4]) turned out to be 1.8 fold. Besides, the LDH % leakage result in the data set on isolated rat hepatocytes [2] (setting [13]) is listed as “No”.

With `CN(CCOc1ccc(CC2SC(=O)NC2=O)cc1)c1ccccn1` (stereo not drawn) [Rosiglitazone, reference compound], in the data set with isolated rat hepatocytes [1] (Rattus norvegicus, Hepatocyte, 5 μM, read-out: Gluconeogenesis (glucose production) % inhibition), the inhibition at 5 µM was found to be 11%. Also, in the data set on isolated rat hepatocytes [1] (setting [5]), the inhibition at 10 µM came to 28%. The inhibition at 25 µM in the data set with isolated rat hepatocytes [1] (setting [6]) came out at 43%. In the data set with isolated rat hepatocytes [1] (setting [11]), the inhibition at 50 µM worked out at 57%. The inhibition at 100 µM in the data set on isolated rat hepatocytes [1] (setting [12]) was 68%. In addition, the LDH % leakage in the data set on isolated rat hepatocytes [2] (5 μM, isolated rat hepatocytes) turned out to be 9%; in the data set with isolated rat hepatocytes [2] (setting [7]), 9%; in the data set on isolated rat hepatocytes [2] (setting [8]), 10%; with isolated rat hepatocytes [2] (setting [9]) it was 11%; with isolated rat hepatocytes [2] (setting [10]), 15%.
